Measurements from patent US9598463B2, “Mucin hypersecretion inhibitors and methods of use” (BIOMARCK PHARMACEUTICALS, LTD., priority 2005, dated 2017).
Where a SMILES comes first, the peptide text is derived from it. The star is where a group is joined. Myristoyl = CCCCCCCCCCCCCC(=O)*

system: not listed separately; assay: Qualitative solubility of test peptides in 0.5 N saline; assay type: physicochemical; details: pH 6.5, 20° C. (table title)
Description: Various test peptides (1 to 5 mg each) were weighed out accurately in individual 2 mL screw cap glass vials and aliquots of 25 μL of 0.5 N saline, pH 6.5, were added at 25° C. and ambient pressure. The solubility was evaluated visually. If the test peptide dissolves completely with the first aliquot of saline, its solubility was calculated and designated as more than the calculated amount. […] Similarly, if 1.7 mg of a test peptide fails to dissolve in 1.7 mL of 0.5 N saline, its solubility is stated as <1.0 mg/mL.

| Molecule | solubility [mg/mL] |
| --- | --- |
| Ac-GAQFSATAAK-OH [Ac-peptide 245] | > 100 |
| Ac-GAAFSKTAAK-OH [Ac-peptide 243] | > 50 |
| Ac-QFSKTAAKGE-NH2 [Ac-peptide 108-NH2] | > 150 |
| Ac-SKTAAKGE-NH2 [Ac-peptide 141-NH2] | > 200 |
| CCCCCCCCCCCCCC(=O)NCC(=O)N[C@@H](C)C(=O)N[C@@H](CCC(N)=O)C(=O)N[C@@H](C)C(=O)N[C@@H](CO)C(=O)N[C@@H](CCCCN)C(=O)N[C@H](C(=O)N[C@@H](C)C(=O)N[C@@H](C)C(=O)N[C@@H](CCCCN)C(=O)NCC(=O)N[C@@H](CCC(=O)O)C(=O)O)[C@@H](C)O [myr-peptide 237] (Myristoyl-GAQASKTAAKGE-OH) | < 1 |
| CCCCCCCCCCCCCC(=O)NCC(=O)N[C@@H](C)C(=O)N[C@@H](CCC(=O)O)C(=O)N[C@@H](Cc1ccccc1)C(=O)N[C@@H](CO)C(=O)N[C@@H](CCCCN)C(=O)N[C@H](C(=O)N[C@@H](C)C(=O)N[C@@H](C)C(=O)N[C@@H](CCCCN)C(=O)NCC(=O)N[C@@H](CCC(=O)O)C(=O)O)[C@@H](C)O [myr-peptide 238] (Myristoyl-GAEFSKTAAKGE-OH) | > 2 |
| Ac-GAQFSKTAAA-OH [Ac-peptide 248] | > 100 |
| Ac-GAQASKTAAK-OH [Ac-peptide 236] | > 80 |
| Ac-GAQFSKAAAK-OH [Ac-peptide 247] | > 100 |
| Ac-AQFSKTAAKGE-NH2 [Ac-peptide 93-NH2] | > 90 |
| Ac-GAQFSKTA-OH [Ac-peptide 137] | > 200 |
| Ac-GAQFSKTAAKGA-OH [Ac-peptide 241] | > 50 |
| CCCCCCCCCCCCCC(=O)NCC(=O)N[C@@H](C)C(=O)N[C@@H](CCC(N)=O)C(=O)N[C@@H](Cc1ccccc1)C(=O)N[C@@H](CO)C(=O)N[C@@H](CCCCN)C(=O)N[C@H](C(=O)N[C@@H](C)C(=O)O)[C@@H](C)O [myr-peptide 137] (Myristoyl-GAQFSKTA-OH) | < 1 |
| CCCCCCCCCCCCCC(=O)N[C@@H](C)C(=O)N[C@@H](C)C(=O)N[C@@H](CCCCN)C(=O)NCC(=O)N[C@@H](CCC(=O)O)C(=O)N[C@@H](C)C(=O)O [myr-peptide 179] (Myristoyl-AAKGEA-OH) | < 1 |
| Ac-GAQFSKTAAKGEAAAERPGEAAVA-OH [Ac-peptide 1] | > 125 |
| Ac-AAQFSKTAAK-OH [Ac-peptide 242] | > 100 |
| Ac-KTAAKGE-NH2 [Ac-peptide 159-NH2] | > 200 |
| CC(=O)N[C@@H](C)C(=O)N[C@@H](CCCCN)C(=O)NCC(=O)N[C@@H](CCC(=O)O)C(N)=O [Ac-peptide 219-NH2] (Ac-AKGE-NH2) | > 200 |
| CCCCCCCCCCCCCC(=O)N[C@@H](C)C(=O)N[C@@H](C)C(=O)N[C@@H](C)C(=O)N[C@@H](CCC(=O)O)C(=O)N[C@@H](CCCNC(=N)N)C(=O)N1CCC[C@H]1C(=O)NCC(=O)N[C@@H](CCC(=O)O)C(=O)N[C@@H](C)C(=O)N[C@@H](C)C(=O)N[C@H](C(=O)N[C@@H](C)C(=O)O)C(C)C [myr-peptide 91] (Myristoyl-AAAERPGEAAVA-OH) | < 20 |

system: methacholine-induced mucin hypersecretion; assay: Methacholine-induced mucin hypersecretion in ovalbumin-sensitized mouse model of asthma, BAL mucin ELISA (Balb/C mice); assay type: in vivo; details: Table II, peptides at 100 μM, 50 μL intratracheal 15 min before methacholine
Source text: Experiments were designed to test whether or not the MANS peptide and other test peptides related thereto inhibit hypersecretion of mucin in murine airway in vivo. The ovalbumin-sensitized mouse model of allergic inflammation and asthma used in these studies was as described by Singer et al. (2004), supra. As a negative control, a control peptide containing an N-terminal myristoyl group and the same amino acids as MANS peptide but arranged in random order (i.e., the random N-terminal sequence, RNS, myristoyl-peptide 232) was tested alongside the proposed active peptides. BP2 mice, aged 6-8 wks, were immunized subcutaneously twice at weekly intervals with 1 μg of ovalbumin. After 14 days of sensitization, the animals were exposed to aerosolized ovalbumin, which causes a pronounced goblet cell hyperplasia after 72 hours. At the 72 hr time point, the secretagogue, methacholine ([…]) was delivered using a Buxco system nebulizer providing a fine aerosol for 90 seconds. Fifteen min prior to the secretagogue challenge, 50 μL of the test peptide, at 3 different concentrations (10 μM, 100 μM, or 140 μM), was administered by intratracheal route. The RNS peptide was tested at the highest dose level only (50 μL of 140 μM solution). […] Each experiment was carried out in 6 mice per point, and each set of experiments was repeated 3 times. To test strain-to-strain variations, the above experiment was repeated in Balb/C mice under similar protocol. Both stimulated and unstimulated mucin secretion, in mice treated with […] sodium acetate (data not shown), were identical to saline control. Following the methacholine challenge, the animals were sacrificed and bronchoalveolar lavage (BAL) performed on 6 animals per group for analysis of secreted mucin.
Mice were sacrificed by cervical dislocation, followed by rapid exposure of the trachea and insertion of a cannula through a small incision. Bronchoalveolar lavage (BAL) fluid was collected with 0.5 ml followed by 3×1 ml PBS containing PMSF (5 mM), EDTA (5 mM), and DTT (5 mM). BAL fluid was separated into cell-free and cell fractions via brief centrifugation prior to any analyses being performed. The cell-free supernatants were analyzed for the presence of mucin via an ELISA method using anti-mucin antibodies shown to react with mouse mucin. Specifically, a mouse anti-MUC5AC antibody that recognizes the carbohydrate portion of secreted mucin was used in these assays. Data generated from each BAL sample were normalized to total protein as determined by Bradford assay. Mucin content was expressed as the value obtained with the anti-mucin antibody minus that obtained with the non-immune control antibody. All ELISA data were statistically examined using a one-way ANOVA.

| Molecule | Mucin Secretion % control [% control] |
| --- | --- |
| CCCCCCCCCCCCCC(=O)NCC(=O)N[C@@H](C)C(=O)N[C@@H](CCC(N)=O)C(=O)N[C@@H](Cc1ccccc1)C(=O)N[C@@H](CO)C(=O)N[C@@H](CCCCN)C(=O)N[C@H](C(=O)N[C@@H](C)C(=O)O)[C@@H](C)O [myr-peptide 137] (Myristoyl-GAQFSKTA-OH) | 55 |

same assay, conditions: Table III, peptides at 100 μM

| Molecule | Mucin Secretion % control [% control] |
| --- | --- |
| CCCCCCCCCCCCCC(=O)N[C@@H](C)C(=O)N[C@@H](C)C(=O)N[C@@H](C)C(=O)N[C@@H](CCC(=O)O)C(=O)N[C@@H](CCCNC(=N)N)C(=O)N1CCC[C@H]1C(=O)NCC(=O)N[C@@H](CCC(=O)O)C(=O)N[C@@H](C)C(=O)N[C@@H](C)C(=O)N[C@H](C(=O)N[C@@H](C)C(=O)O)C(C)C [myr-peptide 91] (Myristoyl-AAAERPGEAAVA-OH) | 68 |
